Where two headings read alike, the source gives them in different places. Numbered stars: 1 amine (or outer) side, 2 acyl side, 3 side chain; on linkers, the order of the positions; unused ones are H or OH. Bridge positions count the residues as written; N and C are the ends. Square brackets hold non-standard residues; d marks the D form. Peptide text beside a SMILES is read from it. I, II: the chains in the order shown. * marks the point of attachment. X2 = NC(=O)c1ccccc1Nc1nc(Nc2ccc(N3CCN(C(=O)NC4CCC(N(CCC#Cc5ccc6c(c5)CN(C5CCC(=O)NC5=O)C6=O)*)CC4)CC3)cc2)ncc1Cl; Succinimide(1-C2H4CO,3-yl) = O=C1CC([*:1])C(=O)N1CCC(=O)[*:2]; PABC = O=C(OCc1ccc(N[*:1])cc1)[*:2]; Thr(ol) = C[C@@H](O)[C@H](N)CO
How the values were obtained:
Assay type in all cases: cell-based
[1] = system: Human Colon Cancer cells Colo205; experiment: Cell proliferation experiment (Alarm blue), Colo205
Experimental: (§1) The cells were cultured in conventional ways, and the cells should be passed for at least 2 generations before plating. Cells at the logarithmic growth phase were collected, prepared into single cell suspensions and counted. The concentration of cells was adjusted to desired concentration, and cells were inoculated into a 96-well cell culture plate at 100 μl per well. 100 μL of complete medium of the test compound were added to each well, 2 replicate wells for each concentration were set up, and diluted with a 5-fold gradient, and continued to culture for 72 h. All cells were subjected to EC50 test for corresponding samples.
(§2) The fluorescence intensity of each well was detected using the Alarm blue method, and IC50 was calculated.
(§3) IC50 was calculated according to the following formula:
(§4) [formula] • wherein Min, Max and Slope represent the minimum, maximum and slope respectively.

[2] = system: Human Small Cell Lung Cancer H69; experiment: Cell proliferation experiment (Alarm blue), H69
Experimental: as §1, §2, §3, §4

Human Colon Cancer HT-29 = experiment: Cell proliferation experiment (Alarm blue), HT-29
Experimental: as §1, §2, §3, §4

[3] = system: Human Small Cell Lung Cancer NCI-H82; experiment: Cell proliferation experiment (Alarm blue), H82
Experimental: as §1, §2, §3, §4

[4] = system: human gastric carcinoma cells N87; experiment: Cell proliferation experiment (Alarm blue), N87
Experimental: as §1, §2, §3, §4

[5] = Homo sapiens, COLO 205, 72 h, Colo205 cells, 72 h culture, read-out: Anti cell proliferative activity EC50, Colo205
[6] = Homo sapiens, NCI-H69, H69 cells, 72 h culture, read-out: Anti cell proliferative activity EC50, H69
[7] = Homo sapiens, HT-29 cells, 72 h culture, read-out: Anti cell proliferative activity EC50, HT-29
[8] = Homo sapiens, NCI-H82, 72 h, H82 cells, 72 h culture, read-out: Anti cell proliferative activity EC50, H82
[9] = Homo sapiens, 72 h, N87 cells, 72 h culture, read-out: Anti cell proliferative activity EC50, N87
[10] = Colo205 cells, 72 h culture, read-out: Anti cell proliferative activity EC50, Colo205
[11] = H69 cells, 72 h culture, read-out: Anti cell proliferative activity EC50, H69
[12] = HT-29 cells, 72 h culture, read-out: Anti cell proliferative activity EC50, HT-29
[13] = H82 cells, 72 h culture, read-out: Anti cell proliferative activity EC50, H82
[14] = N87 cells, 72 h culture, read-out: Anti cell proliferative activity EC50, N87

SMILES	EC50 [1, 10] [nM]	EC50 [2, 11] [nM]	EC50 (Human Colon Cancer HT-29; [12]) [nM]	EC50 [3, 13] [nM]	EC50 [4, 14] [nM]	further results
NC(=O)c1ccccc1Nc1nc(Nc2ccc(C3CCN(C(=O)N[C@H]4C[C@@H](NCCC#Cc5ccc6c(c5)CN(C5CCC(=O)NC5=O)C6=O)C4)CC3)cc2)ncc1Cl (some centres unmarked) [UB-181279]	–	–	–	–	–	EC50 [1, 5]: 65.2 nM; EC50 [2, 6]: > 1000 nM; EC50 (Human Colon Cancer HT-29; [7]): 415 nM; EC50 [3, 8]: 24.9 nM; EC50 [4, 9]: > 1000 nM
CNC(=O)c1ccccc1Nc1nc(Nc2ccc(N3CCN(C(=O)N[C@H]4CC[C@@H](N(CCC#Cc5ccc6c(c5)CN(C5CCC(=O)NC5=O)C6=O)C(=O)OCc5ccc(NC(=O)[C@H](CCCNC(N)=O)NC(=O)[C@@H](NC(=O)CCCCCN6C(=O)CC(SC[C@H](N)C(=O)N[C@H](Cc7ccccc7)C(=O)N[C@H]7CSSC[C@@H](C(=O)N[C@H](CO)[C@@H](C)O)NC(=O)[C@H]([C@@H](C)O)NC(=O)[C@H](CCCCN)NC(=O)[C@@H](Cc8c[nH]c9ccccc89)NC(=O)[C@H](Cc8ccccc8)NC7=O)C6=O)C(C)C)cc5)CC4)CC3)cc2)ncc1Cl (some centres unmarked) [UB-181246]	236	> 1000	> 1000	298	515	–
CC(OC(=O)N(CCC#Cc1ccc2c(c1)CN(C1CCC(=O)NC1=O)C2=O)C1CCC(NC(=O)N2CCN(c3ccc(Nc4ncc(Cl)c(Nc5ccccc5C(N)=O)n4)cc3)CC2)CC1)C(C)SSC[C@H](N)C(=O)N[C@H](Cc1ccccc1)C(=O)N[C@H]1CSSC[C@@H](C(=O)N[C@H](CO)[C@@H](C)O)NC(=O)[C@H]([C@@H](C)O)NC(=O)[C@H](CCCCN)NC(=O)[C@@H](Cc2c[nH]c3ccccc23)NC(=O)[C@H](Cc2ccccc2)NC1=O (some centres unmarked) [UB-181275]	442	> 1000	968	740	> 1000	–
C[C@H](NC(=O)[C@H](CC(=O)O)NC(=O)[C@H](CC(=O)O)NC(=O)[C@H](CCCNC(=N)N)NC(=O)[C@H](CC(=O)O)NC(=O)CCN1C(=O)CC(SC[C@H](N)C(=O)N[C@@H](Cc2ccccc2)C(=O)N[C@H]2CSSC[C@@H](C(=O)N[C@H](CO)[C@@H](C)O)NC(=O)[C@H]([C@@H](C)O)NC(=O)[C@H](CCCCN)NC(=O)[C@@H](Cc3c[nH]c4ccccc34)NC(=O)[C@H](Cc3ccccc3)NC2=O)C1=O)C(=O)N[C@@H](CC(N)=O)C(=O)Nc1ccc(COC(=O)N(CCC#Cc2ccc3c(c2)CN(C2CCC(=O)NC2=O)C3=O)C2CCC(NC(=O)N3CCN(c4ccc(Nc5ncc(Cl)c(Nc6ccccc6C(N)=O)n5)cc4)CC3)CC2)cc1 (some centres unmarked) [UB-181343] (I: H-CFCF[dW]KTC[Thr(ol)] / II: DRDDAN[PABC]-X2; linker I:1-II:N via Succinimide(1-C2H4CO,3-yl); disulfide I:3-I:8)	–	–	–	–	–	EC50 ([1]; 72 h): 285 nM; EC50 ([2]; 72 h): 738 nM; EC50 (Human Colon Cancer HT-29; 72 h): > 1000 nM; EC50 ([3]; 72 h): 103 nM; EC50 ([4]; 72 h): 305 nM
CC(C)c1cc(-c2nnc(O)n2-c2ccc3c(ccn3CCC3CCN(C(=O)CCSSCCOC(=O)N(CCC#Cc4ccc5c(c4)CN(C4CCC(=O)NC4=O)C5=O)C4CCC(NC(=O)N5CCN(c6ccc(Nc7ncc(Cl)c(Nc8ccccc8C(N)=O)n7)cc6)CC5)CC4)CC3)c2)c(O)cc1O (centres unmarked) [UB-181294]	301	> 1000	865	245	818	–
CNC(=O)c1ccccc1Nc1nc(Nc2ccc(N3CCN(C(=O)NC4CCN(CCNCCC#Cc5ccc6c(c5)CN(C5CCC(=O)NC5=O)C6=O)CC4)CC3)cc2)ncc1Cl (centres unmarked) [UB-181240]	–	–	–	–	–	EC50 [1, 5]: 40.1 nM; EC50 [2, 6]: > 1000 nM; EC50 (Human Colon Cancer HT-29; [7]): 181 nM; EC50 [3, 8]: 37 nM; EC50 [4, 9]: 92 nM
CNC(=O)c1ccccc1Nc1nc(Nc2ccc(N3CCN(C(=O)N[C@H]4CC[C@@H](N(CCC#Cc5ccc6c(c5)CN(C5CCC(=O)NC5=O)C6=O)C(=O)OCCSSC[C@H](N)C(=O)N[C@H](Cc5ccccc5)C(=O)N[C@H]5CSSC[C@@H](C(=O)N[C@H](CO)[C@@H](C)O)NC(=O)[C@H]([C@@H](C)O)NC(=O)[C@H](CCCCN)NC(=O)[C@@H](Cc6c[nH]c7ccccc67)NC(=O)[C@H](Cc6ccccc6)NC5=O)CC4)CC3)cc2)ncc1Cl (some centres unmarked) [UB-181299]	302	> 1000	> 1000	246	679	–
